Legend:
[1] = test system: Plasmodium falciparum; test: Antiplasmodial activity against chloroquine resistant Plasmodium falciparum 7GB assessed as inhibition of parasite growth incubated for 48 hrs by SYBR green I staining based fluorescence assay; format: functional, organism-based
[2] = test system: Plasmodium falciparum; test: Antiplasmodial activity against Plasmodium falciparum 3D7 assessed as inhibition of parasite growth incubated for 48 hrs by SYBR green I staining based fluorescence assay; format: functional, organism-based; details: 3D7, 48 h
[3] = test system: Plasmodium falciparum; test: Antiplasmodial activity against Plasmodium falciparum 3D7 infected in erythrocytes (unknown origin) assessed as inhibition of parasite growth by SYBR green staining based fluorescence assay; format: functional, organism-based; details: 3D7, Erythrocyte
[4] = Cytotoxicity against human HepG2 cells assessed as reduction in cell viability incubated for 24 hrs by MTT assay; format: toxicity, cell-based
[5] = Selectivity index, ratio of CC50 for cytotoxicity against human HepG2 cells to IC50 for […] activity against Plasmodium falciparum 3D7; format: toxicity, cell-based; details: read-out: Ratio CC50/IC50
[6] = Inhibition of Plasmodium falciparum plasmepsin IV assessed as substrate cleavage preincubated with enzyme for 5 mins followed by substrate addition and measured immediately by spectrophotometric analysis
[7] = test system: Plasmodium falciparum; test: Inhibition of Plasmodium falciparum 3D7 cytochrome bc1 oxidoreductase using decylubiquinol as substrate at 70 uM relative to control
[8] = test system: Plasmodium falciparum; test: Antiplasmodial activity against chloroquine resistant Plasmodium falciparum W2 infected in erythrocytes (unknown origin) assessed as inhibition of parasite growth incubated for 90 hrs by SYBR green staining based fluorescence assay; format: functional, organism-based; details: W2, Erythrocyte
[9] = test system: Plasmodium falciparum; test: Antiplasmodial activity against chloroquine sensitive Plasmodium falciparum 3D7 infected in erythrocytes (unknown origin) assessed as inhibition of parasite growth incubated for 90 hrs by SYBR green staining based fluorescence assay; format: functional, organism-based; details: 3D7, Erythrocyte
[10] = Cytotoxicity against human PBMC cells assessed as inhibition of cell growth incubated for 24 hrs by Celltiter-Glo assay; format: toxicity, cell-based
[11] = test system: Plasmodium falciparum; test: Antiplasmodial activity against chloroquine sensitive Plasmodium falciparum D6 infected in erythrocytes (unknown origin) incubated for 72 hrs by SYBR green I staining based fluorescence assay; format: functional, organism-based; details: D6, Erythrocyte
[12] = test system: Plasmodium berghei; test: Antimalarial activity against GFP-expressing liver stage Plasmodium berghei ANKA sporozoites infected in human HepG2 cells assessed as inhibition of parasite growth incubated for 2 days by imaging analysis; format: functional, organism-based; details: HepG2, 48 h
[13] = test system: Plasmodium falciparum; test: Antiplasmodial activity against chloroquine sensitive Plasmodium falciparum 3D7 assessed as reduction in [3H]-hypoxanthine incorporation by liquid scintillation beta counter analysis; format: functional, organism-based
[14] = test system: Plasmodium falciparum; test: Antiplasmodial activity against Plasmodium falciparum RKL-9 stage I-V gametocytes assessed as reduction in parasitemia incubated for 72 hrs by giemsa staining based analysis; details: RKL-9, 72 h
[15] = Cytotoxicity against human U-937 cells assessed as inhibition of cell growth incubated for 24 hrs by Celltiter-Glo assay; format: toxicity, cell-based
[16] = test system: Plasmodium berghei; test: Antimalarial activity against GFP-expressing Plasmodium berghei ANKA infected in mouse assessed as survival rate at 50 mg/kg, sc pre-infected for 2 hrs followed by compound addition; format: functional
[17] = Inhibition of Plasmodium falciparum plasmepsin X
[18] = test system: Plasmodium berghei; test: Antimalarial activity against chloroquine resistant Plasmodium berghei NK-65 infected RBC infected in Swiss albino mouse assessed as survival rate at 100 mg/kg, sc pre-infected for 48 hrs followed by compound addition for 4 days in the presence of artemisinin; format: functional; details: time 4 day
[19] = Inhibition of Plasmodium falciparum plasmepsin V
[20] = test system: Plasmodium falciparum; test: Antiplasmodial activity against multidrug resistant Plasmodium falciparum Dd2 infected in erythrocytes (unknown origin) incubated for 72 hrs by SYBR green I staining based fluorescence assay; format: functional, organism-based; details: Dd2, Erythrocyte
[21] = Inhibition of Plasmodium falciparum plasmepsin II assessed as substrate cleavage preincubated with enzyme for 5 mins followed by substrate addition and measured immediately by spectrophotometric analysis

## CC(C)(C)OC(=O)N[C@H](Cc1ccccc1)[C@@H](O)CN1CCC(N2CCCCC2)CC1
[1]
  IC50: 2990 nM
[2]
  IC50: 1160 nM

## COc1ccc(N2C(=O)c3cccc(NCc4ccccc4)c3C2=O)cc1
[3]
  IC50: 6800 nM
[4]
  CC50 at 24 h: > 250000 nM
[5]
  selectivity ratio: > 59

## CC(C)[C@H](C(=O)N[C@H](Cc1ccccc1)[C@@H](O)CN1CCN(C[C@H](O)[C@@H](Cc2ccccc2)NC(=O)[C@@H](C(C)C)N2C(=O)c3ccccc3C2=O)CC1)N1C(=O)c2ccccc2C1=O
[6]
  Ki: 3300 nM

## COc1ccc(N2C(=O)c3cccc(N)c3C2=O)cc1
[3]
  IC50: 4200 nM
[4]
  CC50 at 24 h: > 250000 nM
[7]
  inhibition: 74%
[5]
  selectivity ratio: > 36

## O=C(N[C@H](Cc1ccccc1)[C@@H](O)CN1CCN(Cc2ccc(F)cc2)CC1)[C@@H](Cc1ccccc1)N1C(=O)c2ccccc2C1=O
[1]
  IC50: 2990 nM
[2]
  IC50: 1330 nM

## CC(C)CC(c1nc2ccccc2n1Cc1cnn[nH]1)N1C(=O)c2ccccc2C1=O (stereo not drawn)
[8]
  IC50: 900 nM
[9]
  IC50: 700 nM

## Cc1ccc2c(c1)C(=O)N(C(Cc1ccccc1)C(=O)NC(Cc1ccccc1)C(O)CN1CCN(CC(O)C(Cc3ccccc3)NC(=O)C(Cc3ccccc3)N3C(=O)c4ccc(C)cc4C3=O)CC1)C2=O (stereo not drawn)
[10]
  CC50 at 24 h: 11100 nM
[11]
  IC50: 910 nM
[12]
  IC50: 2100 nM
[13]
  IC50: 1310 nM
[14]
  IC50: 1680 nM
[15]
  CC50 at 24 h: 26400 nM
[16]
  Survival: 20 days
[17]
  Ki: 3830 nM
[18]
  Survival: 15 days
[19]
  Ki: 530 nM
[20]
  IC50: 600 nM
[6]
  Ki: 252 nM
[21]
  Ki: 112 nM

## CC[C@H](C)[C@@H](C(=O)N[C@H](Cc1ccccc1)[C@@H](O)CN1CCN(C[C@H](O)[C@@H](Cc2ccccc2)NC(=O)[C@H]([C@@H](C)CC)N2C(=O)c3ccccc3C2=O)CC1)N1C(=O)c2ccccc2C1=O
[21]
  Ki: 990 nM

## CC(C)CC(c1nc2ccccc2n1Cc1cnnn1-c1ccccc1)N1C(=O)c2ccccc2C1=O (stereo not drawn)
[8]
  IC50: 700 nM
[9]
  IC50: 900 nM

## O=C(N[C@H](Cc1ccccc1)[C@@H](O)CN1CCN(C[C@H](O)[C@@H](Cc2ccccc2)NC(=O)[C@@H](Cc2ccccc2)N2C(=O)c3ccccc3C2=O)CC1)[C@@H](Cc1ccccc1)N1C(=O)c2ccccc2C1=O
[1]
  IC50: 2990 nM
[2]
  IC50: 1300 nM

## CC(C)[C@@H](C(=O)N[C@H](Cc1ccccc1)[C@@H](O)CN1CCN(Cc2ccc(Br)cc2)CC1)N1C(=O)c2ccccc2C1=O
[2]
  IC50: 1250 nM

Source: ChEMBL document CHEMBL5241051, “Phthalimide analogs for antimalarial drug discovery” (RSC Med Chem, 2021)
